Measurements: ChEMBL document CHEMBL1201862, “PubChem BioAssay data set” (2004)
Values joined by “and” are separate entries in the source; they are usually repeats but may differ in a detail not shown here. Equal entries are not always repeated.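 Protocol summary: plate cells (96-well), add compound at 5 concentrations, incubate 48 h, interpolate endpoints linearly. The concentration for 50% growth inhibition is given as GI50.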 Active and inactive are the calls of the source. Cut-off read from the data, not from the text of the source: active = GI50 up to about 1.1 µM and inactive = higher.

How the values were obtained:
Assay in all cases: inhibition of tumour cell growth, NCI panel, 48 h
786-0 = tested on: 786-0
HCT-116 = tested on: HCT-116
HOP-18 = tested on: HOP-18
ACHN = tested on: ACHN
SK-OV-3 = tested on: SK-OV-3
HOP-62 = tested on: HOP-62
CCRF-CEM = tested on: CCRF-CEM
OVCAR-3 = tested on: OVCAR-3
EKVX = tested on: EKVX
IGROV-1 = tested on: IGROV-1
SF-539 = tested on: SF-539
UACC-257 = tested on: UACC-257
SW-620 = tested on: SW-620
HCC 2998 = tested on: HCC 2998
XF498 = tested on: XF498
HOP-92 = tested on: HOP-92
OVCAR-5 = tested on: OVCAR-5
A498 = tested on: A498
MOLT-4 = tested on: MOLT-4
NCI-H522 = tested on: NCI-H522
SNB-75 = tested on: SNB-75
SF-295 = tested on: SF-295
COLO 205 = tested on: COLO 205
U-251 = tested on: U-251
HT-29 = tested on: HT-29
SNB-19 = tested on: SNB-19
HL-60 = tested on: HL-60
LOX IMVI = tested on: LOX IMVI
KM12 = tested on: KM12
SK-MEL-2 = tested on: SK-MEL-2
LXFL 529 = tested on: LXFL 529
SNB-78 = tested on: SNB-78
DMS-114 = tested on: DMS-114
SK-MEL-5 = tested on: SK-MEL-5
NCI-H460 = tested on: NCI-H460
OVCAR-8 = tested on: OVCAR-8
RXF 393 = tested on: RXF 393
UO-31 = tested on: UO-31
DMS-273 = tested on: DMS-273
DLD-1 = tested on: DLD-1
K562 = tested on: K562
KM-20L2 = tested on: KM-20L2
NCI-H23 = tested on: NCI-H23
M19-MEL = tested on: M19-MEL
RXF 631 = tested on: RXF 631
TK-10 = tested on: TK-10
SF-268 = tested on: SF-268
Malme-3M = tested on: Malme-3M
A549 = tested on: A549
RPMI-8226 = tested on: RPMI-8226
SK-MEL-28 = tested on: SK-MEL-28
NCI-H226 = tested on: NCI-H226
SN12C = tested on: SN12C
M14 = tested on: M14
CAKI-1 = tested on: CAKI-1
OVCAR-4 = tested on: OVCAR-4
UACC-62 = tested on: UACC-62
HCT-15 = tested on: HCT-15

O=P(O)(OCC(O)O)OCC(O)O
GI50 (786-0): > 100 µM (inactive)
GI50 (HCT-116): > 100 µM (inactive)
GI50 (HOP-18): 41.4 µM (inactive)
GI50 (ACHN): > 100 µM (inactive)
GI50 (SK-OV-3): > 100 µM (inactive)
GI50 (HOP-62): > 100 µM (inactive)
GI50 (CCRF-CEM): > 100 µM (inactive)
GI50 (OVCAR-3): > 100 µM (inactive)
GI50 (EKVX): > 100 µM (inactive)
GI50 (IGROV-1): > 100 µM (inactive)
GI50 (SF-539): > 100 µM (inactive)
GI50 (UACC-257): > 100 µM (inactive)
GI50 (SW-620): > 100 µM (inactive)
GI50 (HCC 2998): > 100 µM (inactive)
GI50 (XF498): > 100 µM (inactive)
GI50 (HOP-92): > 100 µM (inactive)
GI50 (OVCAR-5): > 100 µM (inactive)
GI50 (A498): > 100 µM (inactive)
GI50 (MOLT-4): > 100 µM (inactive)
GI50 (NCI-H522): > 100 µM (inactive)
GI50 (SNB-75): > 100 µM (inactive)
GI50 (SF-295): > 100 µM (inactive)
GI50 (COLO 205): > 100 µM (inactive)
GI50 (U-251): > 100 µM (inactive)
GI50 (HT-29): > 100 µM (inactive)
GI50 (SNB-19): > 100 µM (inactive)
GI50 (HL-60): > 100 µM (inactive)
GI50 (LOX IMVI): > 100 µM (inactive)
GI50 (KM12): > 100 µM (inactive)
GI50 (SK-MEL-2): > 100 µM (inactive)
GI50 (LXFL 529): > 100 µM (inactive)
GI50 (SNB-78): > 100 µM (inactive)
GI50 (DMS-114): > 100 µM (inactive)
GI50 (SK-MEL-5): > 100 µM (inactive)
GI50 (NCI-H460): > 100 µM (inactive)
GI50 (OVCAR-8): > 100 µM (inactive)
GI50 (RXF 393): > 100 µM (inactive)
GI50 (UO-31): > 100 µM (inactive)
GI50 (DMS-273): > 100 µM (inactive)
GI50 (DLD-1): > 100 µM (inactive)
GI50 (K562): > 100 µM (inactive)
GI50 (KM-20L2): > 100 µM (inactive)
GI50 (NCI-H23): > 100 µM (inactive)
GI50 (M19-MEL): > 100 µM (inactive)
GI50 (RXF 631): > 100 µM (inactive)
GI50 (TK-10): > 100 µM (inactive)
GI50 (SF-268): > 100 µM (inactive)
GI50 (Malme-3M): > 100 µM (inactive)
GI50 (A549): > 100 µM (inactive)
GI50 (RPMI-8226): > 100 µM (inactive)
GI50 (SK-MEL-28): > 100 µM (inactive)

CC(=O)O[C@H]1CC[C@@]2(C)C(=CC[C@@H]3C2CC[C@]2(C)C(=O)NC(=O)CC32)C1 (stereo not given in full)
GI50 (786-0): 63.5 µM (inactive)
GI50 (HCT-116): > 100 µM (inactive)
GI50 (HOP-18): > 100 µM (inactive)
GI50 (ACHN): > 100 µM (inactive)
GI50 (SK-OV-3): > 100 µM (inactive)
GI50 (HOP-62): > 100 µM (inactive)
GI50 (CCRF-CEM): > 73.8 µM (inactive)
GI50 (EKVX): > 100 µM (inactive)
GI50 (IGROV-1): > 100 µM (inactive)
GI50 (NCI-H226): > 100 µM (inactive)
GI50 (SF-539): > 100 µM (inactive)
GI50 (UACC-257): > 100 µM (inactive)
GI50 (SW-620): > 56.6 µM (inactive)
GI50 (HCC 2998): > 100 µM (inactive)
GI50 (XF498): > 100 µM (inactive)
GI50 (HOP-92): > 100 µM (inactive)
GI50 (OVCAR-5): > 100 µM (inactive)
GI50 (A498): > 100 µM (inactive)
GI50 (SN12C): > 100 µM (inactive)
GI50 (MOLT-4): > 100 µM (inactive)
GI50 (NCI-H522): 27.9 µM (inactive)
GI50 (SNB-75): > 100 µM (inactive)
GI50 (SF-295): > 100 µM (inactive)
GI50 (COLO 205): > 100 µM (inactive)
GI50 (U-251): 58.6 µM (inactive)
GI50 (HT-29): 97.5 µM (inactive)
GI50 (M14): > 100 µM (inactive)
GI50 (SNB-19): > 100 µM (inactive)
GI50 (CAKI-1): > 100 µM (inactive)
GI50 (HL-60): > 63.1 µM (inactive)
GI50 (LOX IMVI): 40.3 µM (inactive)
GI50 (KM12): > 100 µM (inactive)
GI50 (SK-MEL-2): > 100 µM (inactive)
GI50 (LXFL 529): > 100 µM (inactive)
GI50 (SNB-78): > 100 µM (inactive)
GI50 (DMS-114): > 79.6 µM (inactive)
GI50 (SK-MEL-5): > 100 µM (inactive)
GI50 (OVCAR-4): > 100 µM (inactive)
GI50 (NCI-H460): > 100 µM (inactive)
GI50 (OVCAR-8): > 100 µM (inactive)
GI50 (RXF 393): 35.5 µM (inactive)
GI50 (UO-31): > 100 µM (inactive)
GI50 (DMS-273): 62.7 µM (inactive)
GI50 (DLD-1): > 100 µM (inactive)
GI50 (K562): > 56 µM (inactive)
GI50 (UACC-62): > 100 µM (inactive)
GI50 (KM-20L2): > 100 µM (inactive)
GI50 (NCI-H23): > 100 µM (inactive)
GI50 (M19-MEL): > 100 µM (inactive)
GI50 (RXF 631): > 100 µM (inactive)
GI50 (HCT-15): 68.4 µM
GI50 (TK-10): > 100 µM (inactive)
GI50 (SF-268): > 100 µM (inactive)
GI50 (Malme-3M): > 100 µM (inactive)
GI50 (A549): > 100 µM (inactive)
GI50 (SK-MEL-28): 53.5 µM (inactive)

O=S(O)CCCCSSCC(O)C(O)CSSCCCCS(=O)O (stereo not given)
GI50 (786-0): > 100 µM (inactive)
GI50 (HOP-18): > 100 µM (inactive)
GI50 (ACHN): 26.1 µM (inactive) and 22.1 µM (inactive)
GI50 (SK-OV-3): > 100 µM (inactive)
GI50 (HOP-62): > 100 µM (inactive)
GI50 (CCRF-CEM): 3.37 µM (inactive) and 3.21 µM (inactive)
GI50 (OVCAR-3): 11.4 µM (inactive) and 12.4 µM (inactive)
GI50 (EKVX): 26.9 µM (inactive) and 33.4 µM (inactive)
GI50 (IGROV-1): 83.6 µM (inactive) and 44.5 µM (inactive)
GI50 (SF-539): 17.6 µM (inactive) and 23 µM (inactive)
GI50 (UACC-257): 8.39 µM (inactive) and 4.7 µM (inactive)
GI50 (SW-620): 21.5 µM (inactive) and 19.5 µM (inactive)
GI50 (XF498): 12.4 µM (inactive) and 19 µM (inactive)
GI50 (HOP-92): 26.4 µM (inactive) and 39.7 µM (inactive)
GI50 (OVCAR-5): > 100 µM (inactive) and 74.8 µM (inactive)
GI50 (A498): 64.3 µM (inactive) and 61.9 µM (inactive)
GI50 (SN12C): 40.5 µM (inactive) and 34.9 µM (inactive)
GI50 (MOLT-4): 918 nM (active) and 697 nM (active)
GI50 (SNB-75): 12 µM (inactive) and 17.3 µM (inactive)
GI50 (SF-295): 15.5 µM (inactive) and 12.4 µM (inactive)
GI50 (COLO 205): 18.5 µM (inactive) and 14.6 µM (inactive)
GI50 (U-251): 71.1 µM (inactive) and 50.6 µM (inactive)
GI50 (HT-29): 13.5 µM (inactive) and 9.16 µM (inactive)
GI50 (M14): 12.9 µM (inactive) and 9.08 µM (inactive)
GI50 (SNB-19): 50 µM (inactive) and 55.6 µM (inactive)
GI50 (CAKI-1): 51.6 µM (inactive) and 56.9 µM (inactive)
GI50 (HL-60): 10.2 µM (inactive) and 10.6 µM (inactive)
GI50 (LOX IMVI): 15.4 µM (inactive) and 10.8 µM (inactive)
GI50 (KM12): 21.2 µM (inactive) and 15 µM (inactive)
GI50 (SK-MEL-2): 17.4 µM (inactive) and 15 µM (inactive)
GI50 (LXFL 529): 9.35 µM (inactive) and 12.5 µM (inactive)
GI50 (SNB-78): 18.2 µM (inactive) and 20.9 µM (inactive)
GI50 (DMS-114): 18.3 µM (inactive) and 14.6 µM (inactive)
GI50 (OVCAR-4): 10.7 µM (inactive) and 5.66 µM (inactive)
GI50 (NCI-H460): 52.4 µM (inactive) and 40.4 µM (inactive)
GI50 (OVCAR-8): 30.1 µM (inactive) and 22.2 µM (inactive)
GI50 (RXF 393): 22.3 µM (inactive) and 14.7 µM (inactive)
GI50 (UO-31): 16.7 µM (inactive) and 9.33 µM (inactive)
GI50 (DMS-273): 35 µM (inactive) and 19.7 µM (inactive)
GI50 (DLD-1): 41.1 µM (inactive) and 68.4 µM (inactive)
GI50 (K562): 18.7 µM (inactive) and 12.6 µM (inactive)
GI50 (UACC-62): 12.9 µM (inactive) and 8.73 µM (inactive)
GI50 (KM-20L2): > 100 µM (inactive) and 50.6 µM (inactive)
GI50 (NCI-H23): 18.4 µM (inactive) and 29.2 µM (inactive)
GI50 (M19-MEL): 5.48 µM (inactive) and 3.37 µM (inactive)
GI50 (RXF 631): 22.2 µM (inactive) and 29.2 µM (inactive)
GI50 (HCT-15): 30.5 µM and 29.6 µM
GI50 (TK-10): 68.2 µM (inactive) and 53.8 µM (inactive)
GI50 (SF-268): 17.5 µM (inactive) and 12.2 µM (inactive)
GI50 (Malme-3M): 7.08 µM (inactive) and 7.24 µM (inactive)
GI50 (A549): 34.5 µM (inactive) and 27.1 µM (inactive)
GI50 (RPMI-8226): 13.5 µM (inactive) and 11.8 µM (inactive)
GI50 (SK-MEL-28): 21.6 µM (inactive) and 14.9 µM (inactive)
